Assay results from patent US10005767B2, “Compositions and methods for inhibition of the JAK pathway” (Rigel Pharmaceuticals, Inc., priority 2009, dated 2018).
Like-named read-outs stand apart in the source and are kept apart here.

Test system: human primary T-cells, IL-2 stimulated proliferation (JAK-1 and JAK-3 dependent; reported as JAK3 activity)
Experiment: Human primary T-cell proliferation stimulated by IL-2 (Example 3)
Assay type: cell-based
Conditions: tested under conditions described in Example 3 (IL-2 stimulated human primary T-cell proliferation), read-out: ability to inhibit JAK3 activity, IC50 range (Table V)
Outline: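 Peripheral-blood human T-cells pre-activated via TCR/CD28, IL-2-starved overnight, then cultured 72 h at 37 °C with compound in Yssel's medium containing IL-2 (80 U/mL in cell suspension). Proliferation read as viable-cell ATP by CellTiter-Glo luminescence; reduction versus control taken as JAK pathway inhibition.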

SMILES | IC50 (Homo sapiens, T-cell) | IC50
Cc1cnc(Nc2ccc(C3NCC4CCCCC43)nc2)nc1Nc1ccc2oc(=O)[nH]c2c1 (centres unmarked) [II-121, 5-methyl-N2-[2-(octahydroisoindol-1-yl)pyridin-5-yl]-N4-(2-oxo-2,3-dihydro-1,3-benzoxazol-5-yl)-2,4-pyrimidinediamine] | < 500 nM | 
Cc1cnc(Nc2cnc(C3NCC4CCCCC43)c(Cl)c2)nc1Nc1ccc2oc(=O)[nH]c2c1 (centres unmarked) [II-122, N2-[3-chloro-2-(octahydroisoindol-1-yl)pyridin-5-yl]-5-methyl-N4-(2-oxo-2,3-dihydro-1,3-benzoxazol-5-yl)-2,4-pyrimidinediamine] | < 500 nM | 
COc1ccc(Nc2ncc(C)c(Nc3ccc4oc(=O)[nH]c4c3)n2)cn1 [II-123, N2-(2-methoxypyridin-5-yl)-5-methyl-N4-(2-oxo-2,3-dihydro-1,3-benzoxazol-5-yl)-2,4-pyrimidinediamine] | < 500 nM | 
Cc1cnc(Nc2cnc(N3CCN4CCC[C@H]4C3)c(C(F)(F)F)c2)nc1Nc1ccc2oc(=O)[nH]c2c1 [II-124, N2-[2-(S-1,4-diazabicylco[4.3.0]nonan-4-yl)-3-trifluoromethylpyridin-5-yl]-5-methyl-N4-(2-oxo-2,3-dihydro-1,3-benzoxazol-5-yl)-2,4-pyrimidinediamine] |  | < 500 nM
Cc1cnc(Nc2cnc(N3CCN4CCC3CC4)c(F)c2)nc1Nc1ccc2oc(=O)[nH]c2c1 [II-125, N2-[2-(1,4-diazabicylco[3.2.2]nonan-4-yl)-3-fluoropyridin-5-yl]-5-methyl-N4-(2-oxo-2,3-dihydro-1,3-benzoxazol-5-yl)-2,4-pyrimidinediamine] |  | < 500 nM
C=C1C[C@@H](O)CN1c1ccc(Nc2ncc(C)c(Nc3ccc4oc(=O)[nH]c4c3)n2)cn1 [II-126, N2-[2-(4R-hydroxy-2-methylidene-pyrrolidin-1-yl)pyridin-5-yl]-5-methyl-N4-(2-oxo-2,3-dihydro-1,3-benzoxazol-5-yl)-2,4-pyrimidinediamine] | 500 to 5000 nM | 
Cc1cnc(Nc2ccc(N3C[C@@H](C)N(C)[C@@H](C)C3)nc2)nc1Nc1ccc2oc(=O)[nH]c2c1 [II-127, 5-methyl-N4-(2-oxo-2,3-dihydro-1,3-benzoxazol-5-yl)-N2-[2-(cis-3,4,5-trimethylpiperazino)pyridin-5-yl]-2,4-pyrimidinediamine] | < 500 nM | 
Cc1cnc(Nc2ccc(N3CCN4CCCCC4C3)nc2)nc1Nc1ccc2oc(=O)[nH]c2c1 (centres unmarked) [II-128, N2-[2-(1,4-diazabicylco[4.4.0]decan-4-yl)pyridin-5-yl]-5-methyl-N4-(2-oxo-2,3-dihydro-1,3-benzoxazol-5-yl)-2,4-pyrimidinediamine] |  | < 500 nM
Cc1cnc(Nc2ccc(N3C[C@@H](C)N[C@@H](C)C3)nc2)nc1Nc1ccc2oc(=O)[nH]c2c1 [II-131, N2-[2-(cis-3,5-dimethylpiperazino)pyridin-5-yl]-5-methyl-N4-(2-oxo-2,3-dihydro-1,3-benzoxazol-5-yl)-2,4-pyrimidinediamine] | < 500 nM | 
Cc1cnc(Nc2ccc(N3CCN4CCC[C@@H]4C3)nc2)nc1Nc1ccc2oc(=O)[nH]c2c1 [II-132, N2-[2-(R-1,4-diazabicylco[4.3.0]nonan-4-yl)pyridin-5-yl]-5-methyl-N4-(2-oxo-2,3-dihydro-1,3-benzoxazol-5-yl)-2,4-pyrimidinediamine] |  | < 500 nM
Cc1cnc(Nc2ccc(N3CCC4(CCN(C)C4)C3)nc2)nc1Nc1ccc2oc(=O)[nH]c2c1 (centres unmarked) [II-133, 5-methyl-N2-[2-(7-methyl-2,7-diazaspiro[4.4]nonan-2-yl)pyridin-5-yl]-N4-(2-oxo-2,3-dihydro-1,3-benzoxazol-5-yl)-2,4-pyrimidinediamine] | < 500 nM | 
Cc1cnc(Nc2ccc(N3CCOC[C@@H]3C)nc2)nc1Nc1ccc2oc(=O)[nH]c2c1 [II-134, 5-methyl-N2-[2-(3 S-methylmorpholino)pyridin-5-yl]-N4-(2-oxo-2,3-dihydro-1,3-benzoxazol-5-yl)-2,4-pyrimidinediamine] |  | < 500 nM
Cc1cnc(Nc2ccc(N3CCO[C@H](C)C3)nc2)nc1Nc1ccc2oc(=O)[nH]c2c1 [II-135, 5-methyl-N2-[2-(2R-methylmorpholino)pyridin-5-yl]-N4-(2-oxo-2,3-dihydro-1,3-benzoxazol-5-yl)-2,4-pyrimidinediamine] | < 500 nM | 
Cc1cnc(Nc2ccc(N3CCN(C(C)C)CC3)nc2)nc1Nc1ccc2oc(=O)[nH]c2c1 [II-136, N2-[2-(4-isopropylpiperazino)pyridin-5-yl]-5-methyl-N4-(2-oxo-2,3-dihydro-1,3-benzoxazol-5-yl)-2,4-pyrimidinediamine] | < 500 nM | 
Cc1cnc(Nc2ccc(N3C4CCC3CC(N(C)C)C4)nc2)nc1Nc1ccc2oc(=O)[nH]c2c1 (centres unmarked) [II-137, N2-[2-(3-N,N-dimethylamino-8-azabicyclo[3.2.1]octan-8-yl)pyridin-5-yl]-5-methyl-N4-(2-oxo-2,3-dihydro-1,3-benzoxazol-5-yl)-2,4-pyrimidinediamine] |  | < 500 nM
Cc1cnc(Nc2ccc(N3CCOC(C)C3)nc2)nc1Nc1ccc2oc(=O)[nH]c2c1 (stereo not drawn) [II-138, 5-methyl-N2-[2-(2S-methylmorpholino)pyridin-5-yl]-N4-(2-oxo-2,3-dihydro-1,3-benzoxazol-5-yl)-2,4-pyrimidinediamine] |  | < 500 nM

SMILES | IC50 (Homo sapiens, T-cell) | IC50
Cc1cnc(Nc2ccc(N3C[C@H]4C[C@@H]3CO4)nc2)nc1Nc1ccc2oc(=O)[nH]c2c1 [II-139, 5-methyl-N2-{2-[(1R,4R)-2-oxa-5-azabicyclo[2.2.1]heptan-5-yl]pyridin-5-yl}-N4-(2-oxo-2,3-dihydro-1,3-benzoxazol-5-yl)-2,4-pyrimidinediamine] | < 500 nM | 
COc1cc(Nc2ncc(C)c(Nc3ccc4oc(=O)[nH]c4c3)n2)cnc1OC [II-140, N2-(2,3-dimethoxypyridin-5-yl)-5-methyl-N4-(2-oxo-2,3-dihydro-1,3-benzoxazol-5-yl)-2,4-pyrimidinediamine] | < 500 nM | 
COc1ncc(Nc2ncc(C)c(Nc3ccc4oc(=O)[nH]c4c3)n2)cc1C [II-141, N2-(2-methoxy-3-methylpyridin-5-yl)-5-methyl-N4-(2-oxo-2,3-dihydro-1,3-benzoxazol-5-yl)-2,4-pyrimidinediamine] | < 500 nM | 
Cc1cnc(Nc2ccc(OCCO)nc2)nc1Nc1ccc2oc(=O)[nH]c2c1 [II-142, N2-[2-(2-hydroxy)ethoxypyridin-5-yl]-5-methyl-N4-(2-oxo-2,3-dihydro-1,3-benzoxazol-5-yl)-2,4-pyrimidinediamine] |  | < 500 nM
Cc1cc(N2CCN(C)CC2)ncc1Nc1ncc(C)c(Nc2ccc3oc(=O)[nH]c3c2)n1 [II-143, N2-[4-methyl-2-(4-methylpiperazino)pyridin-5-yl]-5-methyl-N4-(2-oxo-2,3-dihydro-1,3-benzoxazol-5-yl)-2,4-pyrimidinediamine] | 500 to 5000 nM | 
Cc1cnc(Nc2ccc(OC(C)C)nc2)nc1Nc1ccc2oc(=O)[nH]c2c1 [II-144, N2-(2-isopropoxypyridin-5-yl)-5-methyl-N4-(2-oxo-2,3-dihydro-1,3-benzoxazol-5-yl)-2,4-pyrimidinediamine] | < 500 nM | 
COCCOc1ccc(Nc2ncc(C)c(Nc3ccc4oc(=O)[nH]c4c3)n2)cn1 [II-145, N2-[2-(2-methoxy)ethoxypyridin-5-yl]-5-methyl-N4-(2-oxo-2,3-dihydro-1,3-benzoxazol-5-yl)-2,4-pyrimidinediamine] |  | < 500 nM
Cc1cnc(Nc2ccc(OC(C)(C)C(N)=O)nc2)nc1Nc1ccc2oc(=O)[nH]c2c1 [II-146, N2-[2-(1-aminocarbonyl-1-methyl)ethoxypyridin-5-yl]-5-methyl-N4-(2-oxo-2,3-dihydro-1,3-benzoxazol-5-yl)-2,4-pyrimidinediamine] |  | < 500 nM
COc1ncc(Nc2ncc(C)c(Nc3ccc4oc(=O)[nH]c4c3)n2)cc1C(F)(F)F [II-147, N2-(2-methoxy-3-trifluoromethylpyridin-5-yl)-5-methyl-N4-(2-oxo-2,3-dihydro-1,3-benzoxazol-5-yl)-2,4-pyrimidinediamine] | < 500 nM | 
Cc1cnc(Nc2ccc(OCCCO)nc2)nc1Nc1ccc2oc(=O)[nH]c2c1 [II-148, N2-[2-(3-hydroxy)propoxypyridin-5-yl]-5-methyl-N4-(2-oxo-2,3-dihydro-1,3-benzoxazol-5-yl)-2,4-pyrimidinediamine] |  | 500 to 5000 nM
COCCCOc1ccc(Nc2ncc(C)c(Nc3ccc4oc(=O)[nH]c4c3)n2)cn1 [II-149, N2-[2-(3-methoxy)propoxypyridin-5-yl]-5-methyl-N4-(2-oxo-2,3-dihydro-1,3-benzoxazol-5-yl)-2,4-pyrimidinediamine] |  | < 500 nM
Cc1cnc(Nc2cnc(N3CCN4CCC3CC4)c(Cl)c2)nc1Nc1ccc2oc(=O)[nH]c2c1 [II-150, 5-(2-(6-(1,4-diazabicyclo[3.2.2]nonan-4-yl)-5-chloropyridin-3-ylamino)-5-methylpyrimidin-4-ylamino)benzo[d]oxazol-2(3H)-one] | < 500 nM | 
Cc1cnc(Nc2ccc(C(=O)NC3CCC3)nc2)nc1Nc1ccc2oc(=O)[nH]c2c1 [II-151, 5-[5-Methyl-4-(2-oxo-2,3-dihydro-benzooxazol-5-ylamino)-pyrimidin-2-ylamino]-pyridine-2-carboxylic acid cyclobutylamide] | < 500 nM | 
COc1cncc(Nc2ncc(C)c(Nc3ccc4oc(=O)[nH]c4c3)n2)c1 [II-152, N2-(5-methoxypyridin-3-yl)-5-methyl-N4-(2-oxo-2,3-dihydro-1,3-benzoxazol-5-yl)-2,4-pyrimidinediamine] | > 10000 nM | 
Cc1cc(Nc2ncc(C)c(Nc3ccc4oc(=O)[nH]c4c3)n2)cnc1C [II-153, N2-(2,3-dimethylpyridin-5-yl)-5-methyl-N4-(2-oxo-2,3-dihydro-1,3-benzoxazol-5-yl)-2,4-pyrimidinediamine] | < 500 nM | 
Cc1cnc(Nc2ccc3c(c2)CNC3)nc1Nc1ccc2oc(=O)[nH]c2c1 [III-1, N4-(benzo[d]oxazol-2(3H)-on-5-yl)-N2-(isoindolin-5-yl)-5-methylpyrimidine-2,4-diamine] | < 500 nM | 
